Data published in paper PMC6751662, “Pharmacological and functional similarities of the human neuropeptide Y system in C. elegans challenges phylogenetic views on the FLP/NPR system” (Cell Communication and Signaling : CCS, 2019).

Target: T1, NPR-5b (Caenorhabditis elegans, UniProt Q6F3C9)
T1 sequence (Q6F3C9 1-433): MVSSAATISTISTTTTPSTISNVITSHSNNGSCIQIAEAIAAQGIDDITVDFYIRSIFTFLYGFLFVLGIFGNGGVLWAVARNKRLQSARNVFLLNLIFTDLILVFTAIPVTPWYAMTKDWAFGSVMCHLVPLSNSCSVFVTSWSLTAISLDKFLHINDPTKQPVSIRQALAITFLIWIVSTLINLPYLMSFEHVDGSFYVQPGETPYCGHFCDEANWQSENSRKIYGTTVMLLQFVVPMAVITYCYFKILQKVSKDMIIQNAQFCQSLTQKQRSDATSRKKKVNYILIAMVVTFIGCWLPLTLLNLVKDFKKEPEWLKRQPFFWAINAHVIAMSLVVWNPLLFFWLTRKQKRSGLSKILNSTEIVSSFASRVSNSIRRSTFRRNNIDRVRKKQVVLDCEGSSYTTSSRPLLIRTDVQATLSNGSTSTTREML
Assay: cAMP reporter gene assay, Gs (no forskolin), NPR-5b
Format: cell-based, C. elegans
Conditions: no forskolin, 4 h, transiently transfected HEK293, CRE-luciferase reporter, mean of >=3 independent experiments
Experimental: Activation of Gs and Gi/o was assessed with a cAMP reporter gene assay. HEK293 cells grown to 70–80% confluency in 6-well plates were transiently co-transfected with vectors encoding the receptor and the cAMP reporter gene plasmid pGL4.29 [luc2P/CRE/Hygro] (Promega; 4 μg total, 1:1 ratio) using Metafectene Pro (3 μl/μg DNA; Biontex) following the manufacturer’s instructions. 16 h post transfection, the cells were seeded into white 384-well plates at a density of 20,000 cells/well. On the next day, the medium was removed and the cells were stimulated with 20 μl of peptide solution (or forskolin as positive control) in serum-free DMEM for 4 h. For measuring Gi/o activity, the peptide solutions additionally contained 1 μM forskolin to elevate cellular cAMP levels. After incubation, the luciferase substrate OneGlo in lysis buffer (Promega) was added and the luminescence was measured in a microplate reader Tecan Spark (Tecan). Data were analyzed with GraphPad Prism 5.03 and are shown as fold of basal or fold of forskolin in case of Gαi/o activity.
For in vitro activation, data is presented as mean ± SEM of at least three independent experiments conducted in technical triplicate. […] For the C. elegans NPRs, we considered the strongest response elicited by any of the peptides downstream of a particular receptor as the receptor’s maximal signal. This may or may not be the biological maximum that can be reached by the ‘true’ endogenous agonist. For the human receptors, the response to the established endogenous agonist reflected the maximal signal.

- cAMP assay Gs, NPR-5b (0.1 µM peptide): 0.68 x-fold of basal
- cAMP assay Gs, NPR-5b (10 µM peptide): 0.68 x-fold of basal
Substance: APKPKFIRF-NH2 [FLP-5-1, C. elegans FMRFamide-like peptide, C-terminally amidated, synthesized by SPPS]
